Test results taken from PubChem BioAssay (NCI).
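Where inhibition never reached the appropriate level, the endpoint shown equals the highest concentration tested. Otherwise, values were interpolated linearly from a five-concentration, 48-hour dose response in 96-well plates. Abbreviation: GI50, concentration required for 50% inhibition of growth. Definition used: TGI = concentration required for complete inhibition of growth.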

How the values were obtained:
Assay in all cases: DTP human tumour cell line panel, 48 h
HOP-92 NSCLC = tested on: HOP-92 NSCLC
A549 NSCLC = tested on: A549 NSCLC
NCI-H460 lung = tested on: NCI-H460 lung
MDA-MB-468 breast = tested on: MDA-MB-468 breast
UO-31 renal = tested on: UO-31 renal
SF-295 CNS = tested on: SF-295 CNS
HCC-2998 colon = tested on: HCC-2998 colon
OVCAR-3 ovarian = tested on: OVCAR-3 ovarian
DU-145 prostate = tested on: DU-145 prostate
SNB-19 CNS = tested on: SNB-19 CNS
CCRF-CEM leukemia = tested on: CCRF-CEM leukemia
SNB-75 CNS = tested on: SNB-75 CNS
OVCAR-8 ovarian = tested on: OVCAR-8 ovarian
BT-549 breast = tested on: BT-549 breast
SK-MEL-28 melanoma = tested on: SK-MEL-28 melanoma
NCI-H226 lung = tested on: NCI-H226 lung
UACC-62 melanoma = tested on: UACC-62 melanoma
SR leukemia = tested on: SR leukemia
KM12 colon = tested on: KM12 colon
CAKI-1 renal = tested on: CAKI-1 renal
TK-10 renal = tested on: TK-10 renal
PC-3 prostate = tested on: PC-3 prostate
SW-620 colon = tested on: SW-620 colon
SK-OV-3 ovarian = tested on: SK-OV-3 ovarian
MALME-3M melanoma = tested on: MALME-3M melanoma
A498 renal = tested on: A498 renal
ACHN renal = tested on: ACHN renal
IGROV1 ovarian = tested on: IGROV1 ovarian
EKVX NSCLC = tested on: EKVX NSCLC
HOP-62 NSCLC = tested on: HOP-62 NSCLC
MOLT-4 leukemia = tested on: MOLT-4 leukemia
NCI-H522 lung = tested on: NCI-H522 lung
HT29 colon = tested on: HT29 colon
RXF 393 renal = tested on: RXF 393 renal
SF-268 CNS = tested on: SF-268 CNS
NCI-H23 lung = tested on: NCI-H23 lung
HS 578T breast = tested on: HS 578T breast
786-0 renal = tested on: 786-0 renal
MDA-MB-435 = tested on: MDA-MB-435
HCT-15 colon = tested on: HCT-15 colon
HL-60(TB) leukemia = tested on: HL-60(TB) leukemia
LOX IMVI melanoma = tested on: LOX IMVI melanoma
SK-MEL-5 melanoma = tested on: SK-MEL-5 melanoma
T-47D breast = tested on: T-47D breast
UACC-257 melanoma = tested on: UACC-257 melanoma
COLO 205 colon = tested on: COLO 205 colon
OVCAR-4 ovarian = tested on: OVCAR-4 ovarian
MCF7 breast = tested on: MCF7 breast
SK-MEL-2 melanoma = tested on: SK-MEL-2 melanoma
OVCAR-5 ovarian = tested on: OVCAR-5 ovarian
U251 CNS = tested on: U251 CNS
SF-539 CNS = tested on: SF-539 CNS
M14 melanoma = tested on: M14 melanoma
NCI/ADR-RES ovarian = tested on: NCI/ADR-RES ovarian
K-562 leukemia = tested on: K-562 leukemia
RPMI-8226 leukemia = tested on: RPMI-8226 leukemia
HCT-116 colon = tested on: HCT-116 colon
MDA-MB-231 breast = tested on: MDA-MB-231 breast
SN12C renal = tested on: SN12C renal

## COc1ccccc1NC(=O)N/N=C/c1c[nH]c2ccccc12
HOP-92 NSCLC
  GI50: 1.85 µM
  TGI: 10.4 µM
A549 NSCLC
  GI50: 1.22 µM
  TGI: 18.2 µM
NCI-H460 lung
  GI50: 0.961 µM
  TGI: 12.6 µM
MDA-MB-468 breast
  GI50: 0.236 µM
  TGI: 2.74 µM
UO-31 renal
  GI50: 3.28 µM
  TGI: 18.4 µM
SF-295 CNS
  GI50: 0.816 µM
  TGI: 5.9 µM
HCC-2998 colon
  GI50: 1.42 µM
  TGI: 14.2 µM
OVCAR-3 ovarian
  GI50: 0.451 µM
  TGI: 5.47 µM
DU-145 prostate
  GI50: 2.56 µM
  TGI: 12.4 µM
SNB-19 CNS
  GI50: 2.58 µM
  TGI: 16.1 µM
CCRF-CEM leukemia
  GI50: 0.379 µM
  TGI: 12.9 µM
SNB-75 CNS
  GI50: 3.43 µM
  TGI: 20.9 µM
OVCAR-8 ovarian
  GI50: 2.12 µM
  TGI: 13.9 µM
BT-549 breast
  GI50: 0.194 µM
  TGI: 4.69 µM
SK-MEL-28 melanoma
  GI50: 1.57 µM
  TGI: 17.6 µM
NCI-H226 lung
  GI50: 4.11 µM
  TGI: 23 µM
UACC-62 melanoma
  GI50: 0.473 µM
  TGI: 12.5 µM
SR leukemia
  GI50: 0.215 µM
  TGI: 12.4 µM
KM12 colon
  GI50: 0.574 µM
  TGI: 11 µM
CAKI-1 renal
  GI50: 2.53 µM
  TGI: 13.7 µM
TK-10 renal
  GI50: 4.73 µM
  TGI: 23.8 µM
PC-3 prostate
  GI50: 1.6 µM
  TGI: 14.7 µM
SW-620 colon
  GI50: 0.479 µM
  TGI: 18.5 µM
SK-OV-3 ovarian
  GI50: 2.48 µM
  TGI: 15.4 µM
MALME-3M melanoma
  GI50: 0.559 µM
  TGI: 16.9 µM
A498 renal
  GI50: 10.1 µM
  TGI: 22.4 µM
ACHN renal
  GI50: 3.13 µM
  TGI: 15.8 µM
IGROV1 ovarian
  GI50: 1.66 µM
  TGI: 20.5 µM
EKVX NSCLC
  GI50: 2.2 µM
  TGI: 13.9 µM
HOP-62 NSCLC
  GI50: 3.01 µM
  TGI: 18.9 µM
MOLT-4 leukemia
  GI50: 0.381 µM
  TGI: 11.9 µM
NCI-H522 lung
  GI50: 0.177 µM
  TGI: 0.428 µM
HT29 colon
  GI50: 0.427 µM
  TGI: 10.6 µM
RXF 393 renal
  GI50: 1.66 µM
  TGI: 6.45 µM
SF-268 CNS
  GI50: 3.06 µM
  TGI: 20.6 µM
NCI-H23 lung
  GI50: 1.45 µM
  TGI: 10.8 µM
HS 578T breast
  GI50: 3.05 µM
  TGI: 25.7 µM
786-0 renal
  GI50: 1.23 µM
  TGI: 3.77 µM
MDA-MB-435
  GI50: 0.226 µM
  TGI: 0.647 µM
HCT-15 colon
  GI50: 0.348 µM
  TGI: 12 µM
HL-60(TB) leukemia
  GI50: 0.304 µM
  TGI: 3.51 µM
LOX IMVI melanoma
  GI50: 0.803 µM
  TGI: 14.9 µM
SK-MEL-5 melanoma
  GI50: 1.04 µM
  TGI: 5.52 µM
T-47D breast
  GI50: 1.04 µM
  TGI: > 100 µM
UACC-257 melanoma
  GI50: 10.7 µM
  TGI: 34.8 µM
COLO 205 colon
  GI50: 0.766 µM
  TGI: 4.44 µM
OVCAR-4 ovarian
  GI50: 4.34 µM
  TGI: 19.9 µM
MCF7 breast
  GI50: 0.423 µM
  TGI: 12.3 µM
SK-MEL-2 melanoma
  GI50: 0.67 µM
  TGI: 4.92 µM
OVCAR-5 ovarian
  GI50: 2.72 µM
  TGI: 15.5 µM
U251 CNS
  GI50: 1.45 µM
  TGI: 12.5 µM
SF-539 CNS
  GI50: 0.704 µM
  TGI: 2.86 µM
M14 melanoma
  GI50: 0.365 µM
  TGI: 10.8 µM
NCI/ADR-RES ovarian
  GI50: 0.299 µM
  TGI: 1.31 µM
K-562 leukemia
  GI50: 0.229 µM
  TGI: 16.4 µM
RPMI-8226 leukemia
  GI50: 1.39 µM
  TGI: 6.09 µM
HCT-116 colon
  GI50: 0.405 µM
  TGI: 3.61 µM
MDA-MB-231 breast
  GI50: 0.824 µM
  TGI: 12.6 µM
SN12C renal
  GI50: 1.1 µM
  TGI: 12.1 µM

## Fc1ccc(N2CC(Cn3c(C(F)(F)F)cc4c(Cl)ncnc43)C2)c(F)c1
HOP-92 NSCLC
  GI50: 11 µM
  TGI: 25.4 µM
A549 NSCLC
  GI50: 17.3 µM
  TGI: 35.7 µM
NCI-H460 lung
  GI50: 3.99 µM
  TGI: 14.3 µM
MDA-MB-468 breast
  GI50: 1.63 µM
  TGI: 3.2 µM
UO-31 renal
  GI50: 2.68 µM
  TGI: 10.8 µM
SF-295 CNS
  GI50: 11.5 µM
  TGI: 24.5 µM
HCC-2998 colon
  GI50: 1.96 µM
  TGI: 3.48 µM
OVCAR-3 ovarian
  GI50: 2.55 µM
  TGI: 6.42 µM
DU-145 prostate
  GI50: 12.6 µM
  TGI: 25.8 µM
SNB-19 CNS
  GI50: 15.1 µM
  TGI: 28.9 µM
CCRF-CEM leukemia
  GI50: 10.4 µM
  TGI: > 100 µM
SNB-75 CNS
  GI50: 12.1 µM
  TGI: 24.8 µM
OVCAR-8 ovarian
  GI50: 2.15 µM
  TGI: 5.07 µM
BT-549 breast
  GI50: 10.7 µM
  TGI: 22.9 µM
SK-MEL-28 melanoma
  GI50: 2.08 µM
  TGI: 4.91 µM
NCI-H226 lung
  GI50: 14 µM
  TGI: 31 µM
UACC-62 melanoma
  GI50: 3.16 µM
  TGI: 13 µM
SR leukemia
  GI50: 2.14 µM
  TGI: 6.92 µM
KM12 colon
  GI50: 16.1 µM
  TGI: 31.2 µM
CAKI-1 renal
  GI50: 11.8 µM
  TGI: 24.2 µM
TK-10 renal
  GI50: 19.3 µM
  TGI: 50.7 µM
PC-3 prostate
  GI50: 3.07 µM
  TGI: 10.9 µM
SW-620 colon
  GI50: 1.89 µM
  TGI: 3.85 µM
SK-OV-3 ovarian
  GI50: 14.6 µM
  TGI: 29.6 µM
MALME-3M melanoma
  GI50: 12.6 µM
  TGI: 25.2 µM
A498 renal
  GI50: 23.3 µM
  TGI: 74.2 µM
ACHN renal
  GI50: 12.9 µM
  TGI: 27.5 µM
IGROV1 ovarian
  GI50: 1.85 µM
  TGI: 3.54 µM
EKVX NSCLC
  GI50: 6.54 µM
  TGI: 19.8 µM
HOP-62 NSCLC
  GI50: 17.1 µM
  TGI: 33.8 µM
MOLT-4 leukemia
  GI50: 3.12 µM
  TGI: 8.97 µM
NCI-H522 lung
  GI50: 1.82 µM
  TGI: 3.97 µM
HT29 colon
  GI50: 3.44 µM
  TGI: 16.3 µM
RXF 393 renal
  GI50: 2.07 µM
  TGI: 4.99 µM
SF-268 CNS
  GI50: 3.14 µM
  TGI: 11.2 µM
NCI-H23 lung
  GI50: 2.65 µM
  TGI: 8.34 µM
HS 578T breast
  GI50: 7.06 µM
  TGI: 41.8 µM
786-0 renal
  GI50: 14.9 µM
  TGI: 29.1 µM
MDA-MB-435
  GI50: 4.95 µM
  TGI: 17.6 µM
HCT-15 colon
  GI50: 1.79 µM
  TGI: 3.55 µM
HL-60(TB) leukemia
  GI50: 2.26 µM
  TGI: 6.38 µM
LOX IMVI melanoma
  GI50: 1.63 µM
  TGI: 2.99 µM
SK-MEL-5 melanoma
  GI50: 10.9 µM
  TGI: 22.9 µM
T-47D breast
  GI50: 13.9 µM
  TGI: 66.8 µM
UACC-257 melanoma
  GI50: 3.1 µM
  TGI: 12 µM
COLO 205 colon
  GI50: 15.1 µM
  TGI: 32.5 µM
OVCAR-4 ovarian
  GI50: 12.9 µM
  TGI: 27 µM
MCF7 breast
  GI50: 8.16 µM
  TGI: 23.6 µM
SK-MEL-2 melanoma
  GI50: 15.9 µM
  TGI: 31.2 µM
OVCAR-5 ovarian
  GI50: 17.8 µM
  TGI: 37.3 µM
U251 CNS
  GI50: 1.91 µM
  TGI: 3.83 µM
SF-539 CNS
  GI50: 13.7 µM
  TGI: 28.3 µM
M14 melanoma
  GI50: 2.98 µM
  TGI: 10.7 µM
NCI/ADR-RES ovarian
  GI50: 10.2 µM
  TGI: 26.5 µM
K-562 leukemia
  GI50: 2.34 µM
  TGI: 7.13 µM
RPMI-8226 leukemia
  GI50: 23.4 µM
  TGI: 64.9 µM
HCT-116 colon
  GI50: 1.92 µM
  TGI: 3.93 µM
MDA-MB-231 breast
  GI50: 1.63 µM
  TGI: 3.09 µM
SN12C renal
  GI50: 1.95 µM
  TGI: 4.97 µM
